Results from patent US9540362B2, “Sphingosine-1-phosphate receptor agonists, methods of preparing the same, and pharmaceutical compositions containing the same as an active agent” (LG LIFE SCIENCES LTD., priority 2013, dated 2017).
Structures can show the parent of a compound that is named as a salt.

Assays:
lymphocytes in blood = experiment: Rat peripheral blood lymphocyte decrease; type: in vivo; conditions: male SD rat, 6 hours after administration
Experimental: Evaluation of Rat Peripheral Blood Lymphocyte Decrease
Lymphocyte decrease in blood by S1P1 agonist was evaluated using a male SD rat. After adapting a rat weighing about 250 g to a breeding facility for one week, a test compound was administered to it once. At 3 hours, 6 hours, 24 hours and 48 hours after administration, blood was taken from a tail caudal vein, and about 200 μl of the blood was put into an EDTA tube while preventing it from clotting, followed by measurement of the number of lymphocytes in blood. The number of lymphocytes was analyzed by a hematological examination device, Hemoanalyzer. The doses of the test compounds were 3 mg/kg for Example 52, 94, 108, 117, 142, 145, 146, 148 and 149 compounds, and 1 mg/kg for Example 150, 151, 153, 154, 155, 158, 159 and 161 compounds.

[1] = molecular target: human sphingosine-1-phosphate 1 receptor (S1P1 receptor) (Homo sapiens, UniProt P21453); experiment: Ca2+ inducing ability using CHO cells overexpressing human S1P1 receptor (Calcium 5 assay kit); type: cell-based; conditions: CHO cells overexpressing human S1P1, calcium RFU; S1P 1 μM = 100%
From the text: Evaluation of Ca^2+ inducing ability of test compound using a cell line expressing human sphingosine-1-phosphate
CHO (Chinese hamster ovary) cells which overexpress human sphingosine-1-phosphate 1 receptor (S1P1 receptor) that react with sphingosine-1-phosphate (S1P) are used for a functional test method wherein an increase of calcium indicates a therapeutic efficacy of an agonist compound.
To prepare CHO cells which overexpress human S1P1˜S1P5, human clones for each subtype having HA at the N terminal residue (S1P1: EDG010TN00, S1P2: EDG020TN00, S1P3: EDG030TN00, S1P4: EDG060TN00, S1P5: EDG080TN00) were purchased from the Missouri S&T cDNA Resource Center and co-transfected with G-protein alpha subunit (G-alpha-16) into CHO-K1 cells.
A calcium measurement kit (Calcium 5 assay kit, Molecular Devices) was used to select an agonist compound. The principle of calcium measurement is that calcium-sensitive dyes are applied to cells, they enter into the cytoplasm of the cells during incubation, and when a ligand binds to a certain receptor to release calcium into the cytoplasm, the dyes bind to said calcium to induce fluorescence which is measured. This test method can sensitively measure only the intracellular calcium concentration change because any change that may occur outside the cells is masked by a masking dye.
The experimental procedure was as follows. One day before calcium measurement, CHO cells overexpressing hS1P1˜hS1P5 were dispensed into a 96-well plate (bottom clear black well) in 3×10^4 cells per well and cultured at 37° C. under 5% carbon dioxide condition for one day. 100 μl of calcium dyes mixed with Assay Buffer (1×HBSS, 20 mM HEPES, 2.5 mM probenecid, pH 7.4) were dispensed into culture solution in well and cultured at 37° C. for one hour. Test compounds were dissolved in 100% DMSO to prepare 1 μl solution per each concentration, and each solution was mixed with 199 μl Assay Buffer such that the concentrations were 50, 5, 0.5, 0.05, 0.005 and 0.0005 μM. The plate cultured with the calcium dyes was put into FlaxstationII (Molecular Devices), and the prepared test compounds (the final concentrations of the test compounds: 10, 1, 0.1, 0.01, 0.001 and 0.0001 μM) were programmed to be automatically inoculated in 50 μl per each well. For a total of 90 seconds, RFU (relative fluorescence unit) values were measured. The value of Reference (S1P substance 1 μM) deducting the blank value was set as 100%, and EC50 values of the test compounds were calculated by prism.

human sphingosine-1-phosphate 1 receptor (S1P1 receptor), sequence (P21453 whole entry): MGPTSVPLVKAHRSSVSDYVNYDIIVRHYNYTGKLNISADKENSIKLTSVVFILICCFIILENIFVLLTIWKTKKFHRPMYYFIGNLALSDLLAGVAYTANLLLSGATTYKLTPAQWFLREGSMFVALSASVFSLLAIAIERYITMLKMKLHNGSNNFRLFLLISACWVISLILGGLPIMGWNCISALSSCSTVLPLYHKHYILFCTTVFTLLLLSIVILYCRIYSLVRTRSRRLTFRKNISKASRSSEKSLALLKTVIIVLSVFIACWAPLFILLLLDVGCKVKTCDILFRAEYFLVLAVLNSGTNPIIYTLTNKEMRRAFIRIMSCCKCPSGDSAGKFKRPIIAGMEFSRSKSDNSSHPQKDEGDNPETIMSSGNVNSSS

EC50 [1] [nM] | Structure (SMILES) | Lymphocyte count (degree of decrease in lymphocyte number) (lymphocytes in blood; administered once, 1 mg/kg) [%] | Lymphocyte count (degree of decrease in lymphocyte number) (lymphocytes in blood; administered once, 3 mg/kg) [%] | Lymphocyte count (degree of decrease in lymphocyte number) (lymphocytes in blood; dose of the reference not stated) [%]
27 | CC(C)n1nc(Cl)c2cc(COc3ccc4c(c3)CCC(CN3CCCC(C(=O)O)C3)=C4Cl)ccc21 (stereo not drawn) [Example 155, 1-[1-chloro-6-(3-chloro-1-isopropyl-1H-indazol-5-ylmethoxy)-3,4-dihydro-naphthalen-2-ylmethyl]-piperidine-3-carboxylic acid] | −75 | – | –
8 | CC(C)n1nc(Cl)c2cc(COc3ccc4c(c3)CCC(CN3CCC(C(=O)O)C3)=C4Cl)ccc21 (stereo not drawn) [Example 150, 1-[1-chloro-6-(3-chloro-1-isopropyl-1H-indazol-5-ylmethoxy)-3,4-dihydro-naphthalen-2-ylmethyl]-pyrrolidine-3-carboxylic acid] | −82 | – | –
19 | CC1=C(CN2CCCC(C(=O)O)CC2)CCc2cc(OCc3ccc4c(c3)c(Cl)nn4C(C)C)ccc21 (stereo not drawn) [Example 149, 1-[6-(3-chloro-1-isopropyl-1H-indazol-5-ylmethoxy)-1-methyl-3,4-dihydro-naphthalen-2-ylmethyl]-azepane-4-carboxylic acid] | – | −80 | –
50 | Cc1cc(C(C)CC(=O)O)ccc1-c1noc(-c2ccc3c(c2)c(Cl)nn3C(C)C)n1 (stereo not drawn) [Example 129, 3-{4-[5-(3-chloro-1-isopropyl-1H-indazol-5-yl)-[1,2,4]oxadiazol-3-yl]-3-methyl-phenyl}-butyric acid, trifluoroacetate] | – | – | –
11 | CC(C)n1nc(Cl)c2cc(COc3ccc4c(c3)CCC(CN3CC[C@@H](C(=O)O)C3)=C4Cl)ccc21 [Example 151, (R)-1-[1-chloro-6-(3-chloro-1-isopropyl-1H-indazol-5-ylmethoxy)-3,4-dihydro-naphthalen-2-ylmethyl]-pyrrolidine-3-carboxylic acid] | −80 | – | –
6 | Cc1c(-c2noc(-c3ccc4c(c3)c(Cl)nn4C(C)C)n2)ccc2c1CCN(CCC(=O)O)C2 [Example 94, 3-{6-[5-(3-chloro-1-isopropyl-1H-indazol-5-yl)-[1,2,4]oxadiazol-3-yl]-5-methyl-3,4-dihydro-1H-isoquinolin-2-yl}-propanoic acid, trifluoroacetate] | – | −82 | –
20 | Cc1c(-c2noc(-c3ccc4c(c3)c(Cl)cn4C(C)C)n2)ccc2c1CCN(CC(=O)O)C2 [Example 58, {6-[5-(3-chloro-1-isopropyl-1H-indol-5-yl)-[1,2,4]oxadiazol-3-yl]-5-methyl-3,4-dihydro-1H-isoquinolin-2-yl}-acetic acid, hydrochloride] | – | – | –
19 | CC1=C(CN2CCC(C(=O)O)CC2)CCc2cc(OCc3ccc4c(c3)c(Cl)nn4C(C)C)ccc21 [Example 148, 1-[6-(3-chloro-1-isopropyl-1H-indazol-5-ylmethoxy)-1-methyl-3,4-dihydro-naphthalen-2-ylmethyl]-piperidine-4-carboxylic acid] | – | −81 | –
10 | Cc1cc(CCC(=O)O)ccc1-c1noc(-c2ccc3c(c2)c(Cl)cn3C(C)C)n1 [Example 52, 3-{4-[5-(3-chloro-1-isopropyl-1H-indol-5-yl)-[1,2,4]oxadiazol-3-yl]-3-methyl-phenyl}-propanoic acid] | – | −80 | –
12 | CC(C)n1nc(Cl)c2cc(COc3ccc4c(c3)CCC(CN3CCC(C(=O)O)CC3)=C4Cl)cnc21 [Example 159, 1-[1-chloro-6-(3-chloro-1-isopropyl-1H-pyrazolo[3,4-b]pyridin-5-ylmethoxy)-3,4-dihydro-naphthalen-2-ylmethyl]-piperidine-4-carboxylic acid] | −80 | – | –
10 | Cc1c(-c2noc(-c3ccc4c(cnn4C(C)C)c3)n2)ccc2c1CCN(CC(=O)O)C2 [Example 85, {6-[5-(1-isopropyl-1H-indazol-5-yl)-[1,2,4]oxadiazol-3-yl]-5-methyl-3,4-dihydro-1H-isoquinolin-2-yl}-acetic acid, trifluoroacetate] | – | – | –
5 | CC1=C(CN2CC(C(=O)O)C2)CCc2cc(OCc3ccc4c(c3)c(Cl)nn4C(C)C)ccc21 [Example 146, 1-[6-(3-chloro-1-isopropyl-1H-indazol-5-ylmethoxy)-1-methyl-3,4-dihydro-naphthalen-2-ylmethyl]-azetidine-3-carboxylic acid] | – | −78 | –
3 | Cc1c(-c2noc(-c3ccc4c(c3)c(C)nn4C(C)C)n2)ccc2c1CCN(CC(=O)O)C2 [Example 117, {6-[5-(1-isopropyl-3-methyl-1H-indazol-5-yl)-[1,2,4]oxadiazol-3-yl]-5-methyl-3,4-dihydro-1H-isoquinolin-2-yl}-acetic acid, trifluoroacetate] | – | −80 | –
50 | Cc1c(-c2noc(-c3ccc4nn(C(C)C)cc4c3)n2)ccc2c1CCN(CC(=O)O)C2 [Example 97, {6-[5-(2-isopropyl-2H-indazol-5-yl)-[1,2,4]oxadiazol-3-yl]-5-methyl-3,4-dihydro-1H-isoquinolin-2-yl}-acetic acid, trifluoroacetate] | – | – | –
– | CCCCCCCCc1ccc(CCC(N)(CO)CO)cc1 [FTY-720, Fingolimod, reference compound] | – | – | −80
50 | CC(C)n1ccc2cc(-c3nc(-c4cccc5c4CCCC5NS(N)(=O)=O)no3)ccc21 (stereo not drawn) [Example 38, N-{5-[5-(1-isopropyl-1H-indol-5-yl)-[1,2,4]oxadiazol-3-yl]-1,2,3,4-tetrahydro-naphthalen-1-yl}-sulfamide] | – | – | –
14 | Cc1cc(CN2CC(C(=O)O)C2)ccc1-c1noc(-c2ccc3c(ccn3C(C)C)c2)n1 [Example 5, 1-{4-[5-(1-isopropyl-1H-indol-5-yl)-[1,2,4]oxadiazol-3-yl]-3-methyl-benzyl}-azetidine-3-carboxylic acid] | – | – | –
25 | CC(C)n1ccc2cc(-c3nc(-c4ccc(CN5CC(C(=O)O)C5)cc4)no3)ccc21 [Example 2, 1-{4-[5-(1-isopropyl-1H-indol-5-yl)-[1,2,4]oxadiazol-3-yl]-benzyl}-azetidine-3-carboxylic acid] | – | – | –
5 | Cc1cc(CCC(=O)O)ccc1-c1noc(-c2ccc3c(ccn3C(C)C)c2)n1 [Example 1, 3-{4-[5-(1-isopropyl-1H-indol-5-yl)-[1,2,4]oxadiazol-3-yl]-3-methyl-phenyl}-propanoic acid] | – | – | –
23 | Cc1cc(CN2CC(C(=O)O)C2)ccc1-c1noc(-c2ccc3c(c2)c(C#N)cn3C(C)C)n1 [Example 4, 1-{4-[5-(3-cyano-1-isopropyl-1H-indol-5-yl)-[1,2,4]oxadiazol-3-yl]-3-methyl-benzyl}-azetidine-3-carboxylic acid] | – | – | –
2 | Cc1c(CN2CC(C(=O)O)C2)cccc1-c1noc(-c2ccc3c(ccn3C(C)C)c2)n1 [Example 26, 1-{3-[5-(1-isopropyl-1H-indol-5-yl)-[1,2,4]oxadiazol-3-yl]-2-methyl-benzyl}-azetidine-3-carboxylic acid] | – | – | –
23 | Cc1cc(CN2CC(C(=O)O)C2)ccc1-c1noc(-c2ccc3c(c2)c(Cl)cn3C(C)C)n1 [Example 3, 1-{4-[5-(3-chloro-1-isopropyl-1H-indol-5-yl)-[1,2,4]oxadiazol-3-yl]-3-methyl-benzyl}-azetidine-3-carboxylic acid] | – | – | –
19 | CCC(C)n1nc(Cl)c2cc(COc3ccc4c(c3)CCC(CN3CCC(C(=O)O)CC3)=C4Cl)cnc21 (stereo not drawn) [Example 160, 1-[6-(1-sec-butyl-3-chloro-1H-pyrazolo[3,4-b]pyridin-5-ylmethoxy)-1-chloro-3,4-dihydro-naphthalen-2-ylmethyl]-piperidine-4-carboxylic acid] | – | – | –
